Here are results for two molecules from US20110091931A1, “Methods and Kits for Determining Oxygen Free Radical (OFR) Levels in Animal and Human Tissues as a Prognostic Marker for Cancer and Other Pathophysiologies” (COLBY PHARMACEUTICAL COMPANY, priority 2009, published 2011).

Molecules are shown by their SMILES. Where two headings read alike, the source gives them in different places.

One experiment deals with Androgen Receptor (AR) (Homo sapiens, UniProt P10275, T878A). As to conditions: LNCaP cells; for fluorescence score, geometric mean / fluorescence score, mean after logarithmic transformation: 40 cells. Here is the method:
The quantitation of subcellular fluorescence was further validated using a known system—nuclear translocation of AR in LNCaP cells treated with androgen (dihydrotestosterone) or androgen analog metribolone. […] LNCaP cells in charcoal stripped androgen depleted medium are grown for 6 days in the presence of low (0.05 nM) metribolone and 4 more days in the presence of high (1 nM) metribolone. […] For objective analysis of the response, a quantitation of the IHC fluorescence is necessary. The Bioimager was used to quantitate the IHC fluorescence of AR in the nuclei and in the cytoplasm of about 40 cells from four random areas of the microscopic field from each plate.

Experiment [1] relates to LNCaP human prostate cancer cells. As to the kind of experiment: DCFH dye oxidation kinetics (ROS, v0) in nuclei and cytoplasm of LNCaP cells. The conditions noted are these: metribolone treatment over 24-96 h. It counts as cell-based. As to the method:
Standardization of cell-based fluorescence quantitation assay. We standardized the BD Pathway Bioimager quantitation of cellular ROS using a well-established cell culture based system. […] The ROS levels in these published studies were determined by monitoring DCFH dye oxidation, where DCFH is oxidized to DCF by ROS to yield quantifiable green fluorescence. The DCF fluorescence in live cell cytoplasm and nuclei (FIG. 2B) were quantitated by using the Hoechst 33342 dye staining of the cell nuclei (blue fluorescence in FIG. 2) that allows for auto focusing, positioning and mapping the contour of the cell nuclei and cytoplasms.
(1) Kinetics of DCF dye oxidation: Oxidation of DCFH to fluorescence DCF dye is a relatively fast reaction that is usually complete within 30-60 minutes. […] Curve fitting of the first 20-30 min of the plot of DCF fluorescence intensity vs. time with a pseudo-first order reaction kinetics yields the initial velocity (v0) values of the reaction (see below), which is directly proportional to the ROS concentration at the time point of DCF dye addition.
(1) Real-time kinetics of DCF dye oxidation in cell nuclei and cytoplasm: DCF dye oxidation kinetics in the nuclei and cytoplasm of LNCaP cells were determined using the BD Bioimager software coupled with Sigmaplot curve-fitting program. […]

The test system of a further experiment is SSAT. The experiment in a line: SSAT mRNA level by qRT-PCR in LNCaP cells. In kind it is cell-based, human. Here is the method:
Each data point was an average of readings from six identically treated LNCaP prostate cancer cell sample wells with readings repeated twice in triplicate sets.
In order to confirm that SSAT was the major source of androgen induced oxidative stress, we developed and used a stable LNCaP cell clone transfected with plasmid transcribing siRNA designed to silence SSAT mRNA expression. The SSAT mRNA level in these cells was determined by qRT-PCR method. […] The ratio of DCF fluorescence (green):DNA fluorescence (blue) for each of the treated well of a 96 well plate normalized to that of the average of control untreated wells represents the ROS level per cell relative to that in control untreated cells. The data points are the mean of numbers obtained from repeat experiments using thirty identically treated wells.
For orientation: Real-time PCR tracks product formation cycle by cycle.

In experiment [2] the test system is SSAT (spermidine/spermine acetyl transferase) gene. The experiment in a line: DNA microarray analysis of gene expression (Affymetrix Gene chip Array) in LNCaP cells. In kind it is cell-based, human. The conditions noted are these: 1 nM R1881, 96 h vs untreated. Here is the method:
SSAT induction is a mechanism of ROS production in CaP cells. In our search for the biochemical mechanism and convenient diagnostic monitoring of androgen-induced ROS production in prostate cells, a DNA microarray analysis of gene expression was also performed using the Affymetrix Gene chip Array We used untreated androgen dependent LNCaP cells and cells treated with 1 nM androgen […] (a well-accepted androgen analog routinely used due to its stability) for 96 h for these studies. […] We noted with considerable interest that among the list of genes that are overexpressed by more than an order of magnitude after androgen-treatment, SSAT is the only enzyme that is directly related to a ROS-generating biochemical pathway.

In experiment [3] the test system is LNCaP cells. The experiment in a line: HPLC quantitation of polyamine and acetyl polyamine levels in LNCaP cells. In kind it is cell-based, human. The conditions noted are these: R1881 1 nM, 96 h. From the text:
This method is routinely used in the analytical laboratory of the core facility of Cancer Centers and was accessible for quantitative assays necessary for the PK/PD determinations. […] Each data point was an average of two determinations where sample cell pellets were collected from three independent experiments.

Experiment [4] relates to LNCaP cells. As to the kind of experiment: DCF dye oxidation assay of androgen (R1881) induced ROS production. As to conditions: cells (si22) transfected with vector transcribing siRNA against SSAT. It counts as cell-based, human. As to the method: SSAT induction is a major source of androgen induced oxidative stress. In order to confirm that SSAT was the major source of androgen induced oxidative stress, we developed and used a stable LNCaP cell clone transfected with plasmid transcribing siRNA designed to silence SSAT mRNA expression. The SSAT mRNA level in these cells was determined by qRT-PCR method. In the cells transfected only with the vector, the SSAT mRNA level increased by over 8-fold after 96 h treatment with R1881, whereas in cells stably transfected with SSAT siRNA (si22), R1881 under similar treatment condition induced less than 2-fold increase in the SSAT transcript, showing over 75% silencing of SSAT mRNA expression. The ROS production induced by androgen analog R1881 in these cells was measured by DCF dye oxidation assay. The green fluorescence of oxidized DCF in androgen treated LNCaP cells was shown. The effect of SSAT silencing on the R1881 induced ROS production measured by DCF assay was also shown. The ratio of DCF fluorescence (green):DNA fluorescence (blue) for each of the treated well of a 96 well plate normalized to that of the average of control untreated wells represents the ROS level per cell relative to that in control untreated cells. The data points are the mean of numbers obtained from repeat experiments using thirty identically treated wells.
Each data point was an average of readings from six wells repeated twice in triplicates. […] The ROS levels of all CPC-200 pretreated cells were normalized to the ROS levels of cells treated with CPC-200 alone.

In experiment [5] the test system is LNCaP human prostate cancer cells. The conditions noted are these: 1 nM metribolone, 96 h; cited from earlier work.
A further experiment relates to prostate cancer cells. As to conditions: androgen-dependent and androgen-independent prostate cancer cells; cited from earlier work.

Chain of Androgen Receptor (AR) (P10275 whole entry T878A): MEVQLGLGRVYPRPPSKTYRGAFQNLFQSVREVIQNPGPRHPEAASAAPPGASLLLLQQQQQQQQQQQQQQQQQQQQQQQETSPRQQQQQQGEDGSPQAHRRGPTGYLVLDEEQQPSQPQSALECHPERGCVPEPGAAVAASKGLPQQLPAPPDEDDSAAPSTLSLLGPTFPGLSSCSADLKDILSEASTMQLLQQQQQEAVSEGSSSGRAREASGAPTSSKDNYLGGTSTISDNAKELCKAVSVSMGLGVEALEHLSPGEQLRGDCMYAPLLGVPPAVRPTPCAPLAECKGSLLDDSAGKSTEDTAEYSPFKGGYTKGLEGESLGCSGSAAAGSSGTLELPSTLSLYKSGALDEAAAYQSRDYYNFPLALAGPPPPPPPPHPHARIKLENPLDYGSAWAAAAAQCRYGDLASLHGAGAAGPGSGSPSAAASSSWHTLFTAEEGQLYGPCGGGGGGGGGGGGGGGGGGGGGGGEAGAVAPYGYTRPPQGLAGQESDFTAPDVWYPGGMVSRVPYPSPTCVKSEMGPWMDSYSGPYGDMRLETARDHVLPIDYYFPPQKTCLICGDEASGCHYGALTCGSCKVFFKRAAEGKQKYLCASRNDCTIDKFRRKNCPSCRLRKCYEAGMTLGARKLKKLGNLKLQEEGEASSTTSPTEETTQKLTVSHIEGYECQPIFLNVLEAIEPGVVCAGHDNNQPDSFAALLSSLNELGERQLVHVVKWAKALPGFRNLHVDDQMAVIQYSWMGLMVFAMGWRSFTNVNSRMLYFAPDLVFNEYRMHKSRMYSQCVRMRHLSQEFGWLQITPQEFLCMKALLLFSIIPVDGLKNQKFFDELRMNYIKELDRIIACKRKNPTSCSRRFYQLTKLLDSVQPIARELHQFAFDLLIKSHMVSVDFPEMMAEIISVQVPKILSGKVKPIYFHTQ

`C[C@]1(O)CC[C@H]2[C@@H]3CCC4=CC(=O)CCC4=C3C=C[C@@]21C` [metribolone, 17β-17-Hydroxy-17-methyl-estra-4,9,11-trien-3-one]: on Androgen Receptor (AR) (0.05 nM metribolone (control)), the “fluorescence score, geometric mean” value is reported as 329 and the “fluorescence score, mean after logarithmic transformation” value is given as 5.80. Besides, on Androgen Receptor (AR) (1 nM metribolone compared to 0.05 nM metribolone), the “increase in the ratio of nuclear fluorescence intensities over the cytoplasmic intensities (AR IHC)” value amounted to 1.5 fold. In addition, at Androgen Receptor (AR) (1 nM metribolone), the “fluorescence score, geometric mean” value was found to be 605 and the “fluorescence score, mean after logarithmic transformation” value is on record as 6.41. For the same molecule, the “cells responding dramatically (nuclear localization of AR)” value on Androgen Receptor (AR) (high (1 nM) metribolone) is listed as 20%. In addition, the “nuclear and cytoplasmic ROS levels (v0 of DCFH dye oxidation)” value in experiment [1] is on record as “increase over time”. In the experiment with SSAT (LNCaP cells stably transfected with SSAT siRNA (si22), 96 h R1881), the “increase in the SSAT transcript” value is on record as “less than 2 fold”. Further, the “increase in SSAT mRNA level” value in the experiment with SSAT (LNCaP cells transfected only with the vector, 96 h R1881) is “over 8 fold”. Also, the “SSAT over-expression, dependence on R1881 concentration” value in the experiment on SSAT (LNCaP cells, 1 nM vs 0.05 nM R1881) is recorded as “over-expressed only in cells treated with 1 nM R1881”. Further, in the experiment on SSAT (R1881 treated LNCaP cells vs untreated control cells), the “increase in SSAT mRNA level” value is given as > 30 fold. For the same molecule, the “SSAT gene expression (microarray)” value in experiment [2] is listed as “highly overexpressed gene”. For the same molecule, in the experiment on LNCaP cells [3], the “putrescine, spermidine, N-acetyl spermidine and N-acetyl spermine levels” value is “increased”; the spermine level result is on record as “markedly decreased spermine level”. The “R1881 induced ROS levels” value with LNCaP cells [4] is listed as “only a minor increase in ROS levels”. Moreover, in experiment [5], the “ROS production (DCFH dye oxidation)” value is recorded as “high levels of ROS”.
In the case of `Cc1c(C)c2c(c(C)c1O)CCC(C)(C)O2` [PMCoI, 2,2,5,7,8 pentamethyl 6-chromanol], the “activities against prostate cancer cells” value in the experiment with prostate cancer cells is “considerable cytotoxic, anti-proliferative and also anti-androgenic activities”.
